Experimental data as given in paper PMC5218480 (PLoS ONE, 2017).

System: MV-4-11 cells
Assay: Gene expression microarray analysis (Affymetrix PrimeView) and GSEA
Assay type: cell-based, human
Design: RFU PODN (11730768_x_at) / Fold change /veh PODN (11730768_x_at) / RFU LINC00158 (11744669_a_at) / Fold change /veh LINC00158 (11744669_a_at) / RFU DUSP10 (11751237_a_at) / Fold change /veh DUSP10 (11751237_a_at) / RFU ID3 (11757404_x_at) / Fold change /veh ID3 (11757404_x_at) / RFU PLEKHG5 (11737974_s_at) / Fold change /veh PLEKHG5 (11737974_s_at) / RFU LRRC4B (11730491_at) / Fold change /veh LRRC4B (11730491_at) / RFU GIMAP4 (11747438_a_at) / Fold change /veh GIMAP4 (11747438_a_at) / RFU KRT8 (11758183_x_at) / Fold change /veh KRT8 (11758183_x_at) / RFU CNN1 (11734310_a_at) / Fold change /veh CNN1 (11734310_a_at) / RFU VPS37D (11726825_at) / Fold change /veh VPS37D (11726825_at) / RFU C10orf10 (11716522_x_at) / Fold change /veh C10orf10 (11716522_x_at) / RFU KIR2DL2 /// KIR2DL4 /// KIR2DL5A /// KIR2DL5B /// KIR2DS1 /// KIR2DS2 /// KIR2DS3 /// KIR2DS4 /// KIR3DL3 /// KIR3DL3 /// KIR3DS1 (11738374_at) / Fold change /veh KIR2DL2 /// KIR2DL4 /// KIR2DL5A /// KIR2DL5B /// KIR2DS1 /// KIR2DS2 /// KIR2DS3 /// KIR2DS4 /// KIR3DL3 /// KIR3DL3 /// KIR3DS1 (11738374_at) / RFU C1QL1 (11718748_at) / Fold change /veh C1QL1 (11718748_at) / RFU TMPRSS4 (11747572_a_at) / Fold change /veh TMPRSS4 (11747572_a_at) / RFU HAMP (11756126_x_at) / Fold change /veh HAMP (11756126_x_at) / RFU RNFT2 (11725882_a_at) / Fold change /veh RNFT2 (11725882_a_at) / RFU NR4A2 (11747474_a_at) / Fold change /veh NR4A2 (11747474_a_at) / RFU ABCC12 (11746883_a_at) / Fold change /veh ABCC12 (11746883_a_at) / RFU TMEM136 (11760407_x_at) / Fold change /veh TMEM136 (11760407_x_at) / RFU CLDN22 /// WWC2 (11732394_at) / Fold change /veh CLDN22 /// WWC2 (11732394_at) / RFU HLA-DPB1 (11760878_x_at) / Fold change /veh HLA-DPB1 (11760878_x_at) / RFU SPINT1 (11716480_a_at) / Fold change /veh SPINT1 (11716480_a_at) / RFU GAP43 (11754022_s_at) / Fold change /veh GAP43 (11754022_s_at) / RFU A4GNT (11735810_at) / Fold change /veh A4GNT (11735810_at) / RFU PRB3 (11715151_x_at) / Fold change /veh PRB3 (11715151_x_at) / RFU TUBB4B (11761932_at) / Fold change /veh TUBB4B (11761932_at) / RFU CAPN14 (11732068_a_at) / Fold change /veh CAPN14 (11732068_a_at) / RFU TMCC2 (11721928_a_at) / Fold change /veh TMCC2 (11721928_a_at) / RFU IRGQ (11745062_a_at) / Fold change /veh IRGQ (11745062_a_at) / RFU FAM174B (11720279_a_at) / Fold change /veh FAM174B (11720279_a_at) / RFU TMPRSS4 (11748680_a_at) / Fold change /veh TMPRSS4 (11748680_a_at) / RFU FAM212B (11763350_a_at) / Fold change /veh FAM212B (11763350_a_at) / RFU PLEKHG5 (11743358_a_at) / Fold change /veh PLEKHG5 (11743358_a_at) / RFU ZSCAN30 (11745921_a_at) / Fold change /veh ZSCAN30 (11745921_a_at) / RFU CMKLR1 (11741424_a_at) / Fold change /veh CMKLR1 (11741424_a_at) / RFU LOC101060620 /// MAPK8IP1 (11723275_at) / Fold change /veh LOC101060620 /// MAPK8IP1 (11723275_at) / RFU SPTSSB (11747773_x_at) / Fold change /veh SPTSSB (11747773_x_at) / RFU PRSS12 (11739890_at) / Fold change /veh PRSS12 (11739890_at) / RFU BIN1 (11741810_x_at) / Fold change /veh BIN1 (11741810_x_at) / RFU WNT11 (11732464_a_at) / Fold change /veh WNT11 (11732464_a_at) / RFU C10orf10 (11716521_a_at) / Fold change /veh C10orf10 (11716521_a_at) / RFU C5orf56 (11738089_at) / Fold change /veh C5orf56 (11738089_at) / RFU CYB561 (11721691_x_at) / Fold change /veh CYB561 (11721691_x_at) / RFU ANKRD19P (11752326_a_at) / Fold change /veh ANKRD19P (11752326_a_at) / RFU OR2T12 /// OR2T33 /// OR2T8 (11738714_s_at) / Fold change /veh OR2T12 /// OR2T33 /// OR2T8 (11738714_s_at) / RFU VCAN (11748164_a_at) / Fold change /veh VCAN (11748164_a_at) / RFU JSRP1 (11732532_at) / Fold change /veh JSRP1 (11732532_at) / RFU KRTAP10-11 (11738290_x_at) / Fold change /veh KRTAP10-11 (11738290_x_at) / RFU MYO3A (11730013_a_at) / Fold change /veh MYO3A (11730013_a_at) / RFU EBF3 (11725865_a_at) / Fold change /veh EBF3 (11725865_a_at) / RFU CAMK2N1 (11719241_x_at) / Fold change /veh CAMK2N1 (11719241_x_at) / RFU C5orf56 (11738088_a_at) / Fold change /veh C5orf56 (11738088_a_at) / RFU OLFML3 (11715873_a_at) / Fold change /veh OLFML3 (11715873_a_at) / RFU LOC100653217 /// NTM (11731650_a_at) / Fold change /veh LOC100653217 /// NTM (11731650_a_at) / RFU MAPK11 (11762145_a_at) / Fold change /veh MAPK11 (11762145_a_at) / RFU FIZ1 (11724087_x_at) / Fold change /veh FIZ1 (11724087_x_at) / RFU OASL (11726364_x_at) / Fold change /veh OASL (11726364_x_at) / RFU SOX15 (11748057_x_at) / Fold change /veh SOX15 (11748057_x_at) / RFU CD79A (11719716_a_at) / Fold change /veh CD79A (11719716_a_at) / RFU HIST1H1D (11736915_at) / Fold change /veh HIST1H1D (11736915_at) / RFU CASKIN2 (11723855_a_at) / Fold change /veh CASKIN2 (11723855_a_at) / RFU LOC730098 (11760151_x_at) / Fold change /veh LOC730098 (11760151_x_at) / RFU OR4N2 (11742367_at) / Fold change /veh OR4N2 (11742367_at) / RFU PRRT2 (11749266_a_at) / Fold change /veh PRRT2 (11749266_a_at) / RFU SNX32 (11753110_a_at) / Fold change /veh SNX32 (11753110_a_at) / RFU CDHR5 (11726645_a_at) / Fold change /veh CDHR5 (11726645_a_at) / RFU RCAN1 (11760418_a_at) / Fold change /veh RCAN1 (11760418_a_at) / RFU FAM167A (11723789_a_at) / Fold change /veh FAM167A (11723789_a_at) / RFU FAM26E (11764081_at) / Fold change /veh FAM26E (11764081_at) / RFU ISYNA1 (11749810_s_at) / Fold change /veh ISYNA1 (11749810_s_at) / RFU ACY1 (11761880_at) / Fold change /veh ACY1 (11761880_at) / RFU 11764098_at / Fold change /veh 11764098_at / RFU SAMD14 (11745864_x_at) / Fold change /veh SAMD14 (11745864_x_at) / RFU NPB (11741838_a_at) / Fold change /veh NPB (11741838_a_at) / RFU TMPRSS6 (11731388_a_at) / Fold change /veh TMPRSS6 (11731388_a_at) / RFU KRTAP10-2 (11738614_at) / Fold change /veh KRTAP10-2 (11738614_at) / RFU ARHGAP8 /// PRR5-ARHGAP8 (11727945_x_at) / Fold change /veh ARHGAP8 /// PRR5-ARHGAP8 (11727945_x_at) / RFU KRTAP5-7 /// NADSYN1 (11734609_at) / Fold change /veh KRTAP5-7 /// NADSYN1 (11734609_at) / RFU RASL12 (11751679_a_at) / Fold change /veh RASL12 (11751679_a_at) / RFU CDKN2B (11736163_a_at) / Fold change /veh CDKN2B (11736163_a_at) / RFU PRF1 (11729649_at) / Fold change /veh PRF1 (11729649_at) / RFU, ZNF638 /// ZNF638-IT1 / Fold change vs veh, ZNF638 /// ZNF638-IT1 / RFU, PANK3 / Fold change vs veh, PANK3 / RFU, SH3YL1 / Fold change vs veh, SH3YL1 / RFU, ZEB2 / Fold change vs veh, ZEB2 / RFU, NRIP1 / Fold change vs veh, NRIP1 / RFU, PTTG1IP / Fold change vs veh, PTTG1IP / RFU, CAPN2 / Fold change vs veh, CAPN2 / RFU, MED14 / Fold change vs veh, MED14 / RFU, SNORA58 / Fold change vs veh, SNORA58 / RFU, C1orf63 / Fold change vs veh, C1orf63 / RFU, LRRFIP1 / Fold change vs veh, LRRFIP1 / RFU, NDUFAF7 / Fold change vs veh, NDUFAF7 / RFU, SLC12A2 / Fold change vs veh, SLC12A2 / RFU, IBTK / Fold change vs veh, IBTK / RFU, ESF1 / Fold change vs veh, ESF1 / Fold change vs veh, TMEM50B / RFU, TAOK1 / Fold change vs veh, TAOK1 / RFU, ACBD3 / Fold change vs veh, ACBD3 / RFU, TMA16 / Fold change vs veh, TMA16 / RFU, RWDD3 / Fold change vs veh, RWDD3 / RFU, BCAT1 / Fold change vs veh, BCAT1 / RFU, EDEM3 / Fold change vs veh, EDEM3 / RFU, TMEM33 / Fold change vs veh, TMEM33 / RFU, WDR75 / Fold change vs veh, WDR75 / RFU, AHCTF1 / Fold change vs veh, AHCTF1 / RFU, TFRC / Fold change vs veh, TFRC / RFU, ZDHHC17 / Fold change vs veh, ZDHHC17 / RFU, NOM1 / Fold change vs veh, NOM1 / RFU, ARL8B / Fold change vs veh, ARL8B / RFU, ZBTB11 / Fold change vs veh, ZBTB11 / RFU, TAMM41 / Fold change vs veh, TAMM41 / RFU, KIAA1704 /// LOC100996395 / Fold change vs veh, KIAA1704 /// LOC100996395 / RFU, ING1 / Fold change vs veh, ING1 / RFU, TRMT61B / Fold change vs veh, TRMT61B / RFU, FUBP3 / Fold change vs veh, FUBP3 / RFU, TP53 / Fold change vs veh, TP53 / RFU, TNKS2 / Fold change vs veh, TNKS2 / RFU, ZFP14 / Fold change vs veh, ZFP14 / RFU, ACTR2 / Fold change vs veh, ACTR2 / RFU, PPP3R1 / Fold change vs veh, PPP3R1 / RFU, PIK3R1 / Fold change vs veh, PIK3R1 / RFU, HNRNPA1 / Fold change vs veh, HNRNPA1 / RFU, RNF170 / Fold change vs veh, RNF170 / RFU, ZNF28 / Fold change vs veh, ZNF28 / RFU, RNGTT / Fold change vs veh, RNGTT / RFU, OGT / Fold change vs veh, OGT / RFU, BRD1 / Fold change vs veh, BRD1 / RFU, MARS / Fold change vs veh, MARS / RFU, ZNF655 / Fold change vs veh, ZNF655 / RFU, FAHD1 / Fold change vs veh, FAHD1 / RFU, BDP1 / Fold change vs veh, BDP1 / RFU, LRRCC1 / Fold change vs veh, LRRCC1 / RFU, ARID1A / Fold change vs veh, ARID1A / RFU, ZNF146 / Fold change vs veh, ZNF146 / RFU, ZNF330 / Fold change vs veh, ZNF330 / RFU, GPN3 / Fold change vs veh, GPN3 / RFU, C9orf123 / Fold change vs veh, C9orf123 / RFU, N4BP2L2 / Fold change vs veh, N4BP2L2 / RFU, ARFIP1 / Fold change vs veh, ARFIP1 / RFU, FAM179B / Fold change vs veh, FAM179B / RFU, BCL10 / Fold change vs veh, BCL10 / RFU, UHRF1BP1L / Fold change vs veh, UHRF1BP1L / RFU, BET1 / Fold change vs veh, BET1 / RFU, CNOT2 / Fold change vs veh, CNOT2 / RFU, ZNF268 / Fold change vs veh, ZNF268 / Fold change vs veh, ZNF507 / RFU, DGCR2 / Fold change vs veh, DGCR2 / RFU, WDSUB1 / Fold change vs veh, WDSUB1 / Fold change vs veh, HSP90B1 /// MIR3652 / RFU, ADSS / Fold change vs veh, ADSS / RFU, GK / Fold change vs veh, GK / RFU, ZNF148 / Fold change vs veh, ZNF148 / RFU, TAF9 / Fold change vs veh, TAF9 / RFU, SLC1A5 / Fold change vs veh, SLC1A5 / RFU, SLMO2 / Fold change vs veh, SLMO2 / RFU, ABCC4 / Fold change vs veh, ABCC4 / RFU, LOC101060439 /// RAP1B / Fold change vs veh, LOC101060439 /// RAP1B / RFU, RFX7 / Fold change vs veh, RFX7 / RFU, GTPBP10 / Fold change vs veh, GTPBP10 / RFU, CNEP1R1 / Fold change vs veh, CNEP1R1 / RFU, BIVM-ERCC5 /// ERCC5 / Fold change vs veh, BIVM-ERCC5 /// ERCC5 / RFU, ILF3 / Fold change vs veh, ILF3 / RFU 11762660_at / Fold change /veh 11762660_at / RFU VCAN (11757783_s_at) / Fold change /veh VCAN (11757783_s_at) / RFU DDX43 (11728927_at) / Fold change /veh DDX43 (11728927_at) / RFU KRT8 (11758188_x_at) / Fold change /veh KRT8 (11758188_x_at) / RFU NKD1 (11759106_at) / Fold change /veh NKD1 (11759106_at) / RFU SRD5A1 (11742802_a_at) / Fold change /veh SRD5A1 (11742802_a_at) / RFU TPSAB1 /// TPSB2 (11721975_s_at) / Fold change /veh TPSAB1 /// TPSB2 (11721975_s_at) / RFU GSTM3 (11746129_a_at) / Fold change /veh GSTM3 (11746129_a_at) / RFU IL23R (11737362_x_at) / Fold change /veh IL23R (11737362_x_at) / RFU TMEM51 (11727254_a_at) / Fold change /veh TMEM51 (11727254_a_at) / RFU PIWIL2 (11732686_x_at) / Fold change /veh PIWIL2 (11732686_x_at) / RFU ORM1 (11744905_x_at) / Fold change /veh ORM1 (11744905_x_at) / RFU CCDC152 (11743942_at) / Fold change /veh CCDC152 (11743942_at) / RFU ECM1 (11717891_a_at) / Fold change /veh ECM1 (11717891_a_at) / RFU IL23R (11748794_a_at) / Fold change /veh IL23R (11748794_a_at) / RFU TNFAIP8L3 (11732012_x_at) / Fold change /veh TNFAIP8L3 (11732012_x_at) / RFU MBOAT4 (11741988_at) / Fold change /veh MBOAT4 (11741988_at) / RFU 11764193_at / Fold change /veh 11764193_at / RFU TMEM53 (11763286_at) / Fold change /veh TMEM53 (11763286_at) / RFU MAGEB2 (11727129_at) / Fold change /veh MAGEB2 (11727129_at) / RFU TMEM200A (11744735_a_at) / Fold change /veh TMEM200A (11744735_a_at) / RFU CCDC152 (11751479_a_at) / Fold change /veh CCDC152 (11751479_a_at) / RFU FAM211A (11726209_a_at) / Fold change /veh FAM211A (11726209_a_at) / RFU RGS16 (11746705_a_at) / Fold change /veh RGS16 (11746705_a_at) / RFU VCAN (11755009_s_at) / Fold change /veh VCAN (11755009_s_at) / RFU RHOB (11743442_s_at) / Fold change /veh RHOB (11743442_s_at) / RFU RGS16 (11720943_a_at) / Fold change /veh RGS16 (11720943_a_at) / RFU RGS16 (11720944_at) / Fold change /veh RGS16 (11720944_at) / RFU, VPS4B / Fold change vs veh, VPS4B / RFU, CREB1 / Fold change vs veh, CREB1 / RFU, DNAJC13 / Fold change vs veh, DNAJC13 / RFU, GNAQ / Fold change vs veh, GNAQ / RFU, CDK5R1 / Fold change vs veh, CDK5R1 / RFU, ZRANB3 / Fold change vs veh, ZRANB3 / RFU, CUL4A / Fold change vs veh, CUL4A / RFU, CCNY / Fold change vs veh, CCNY / RFU, UFL1 / Fold change vs veh, UFL1 / RFU, COG3 / Fold change vs veh, COG3 / RFU, DIAPH2 / Fold change vs veh, DIAPH2 / RFU, SKA2 / Fold change vs veh, SKA2 / RFU, AFF3 / Fold change vs veh, AFF3 / RFU, LMF1 / Fold change vs veh, LMF1 / RFU, IPO11 / Fold change vs veh, IPO11 / RFU, DFFB / Fold change vs veh, DFFB / RFU, FOXP1 / Fold change vs veh, FOXP1 / RFU, CARD8 / Fold change vs veh, CARD8 / RFU, STRN3 / Fold change vs veh, STRN3 / RFU, ADK / Fold change vs veh, ADK / RFU, RASSF2 / Fold change vs veh, RASSF2 / RFU, WIPF1 / Fold change vs veh, WIPF1 / RFU, LARP1B / Fold change vs veh, LARP1B / RFU, RASA1 / Fold change vs veh, RASA1 / RFU, RB1 / Fold change vs veh, RB1 / RFU, PPFIA1 / Fold change vs veh, PPFIA1 / RFU, MAT2A / Fold change vs veh, MAT2A / RFU, CCT5 / Fold change vs veh, CCT5 / RFU, WDR92 / Fold change vs veh, WDR92 / RFU, CUX1 / Fold change vs veh, CUX1 / RFU, TTC7A / Fold change vs veh, TTC7A / RFU, TMEM135 / Fold change vs veh, TMEM135 / RFU, DEPTOR / Fold change vs veh, DEPTOR / RFU, CPM / Fold change vs veh, CPM / RFU, DNAJB6 / Fold change vs veh, DNAJB6 / RFU, CACNA2D3 / Fold change vs veh, CACNA2D3 / RFU, DTX4 / Fold change vs veh, DTX4 / RFU, TFCP2 / Fold change vs veh, TFCP2 / RFU, GMCL1 /// GMCL1P1 / Fold change vs veh, GMCL1 /// GMCL1P1 / RFU, AEBP2 / Fold change vs veh, AEBP2 / RFU, SNHG1 /// SNORD22 /// SNORD25 /// SNORD26 /// SNORD27 /// SNORD28 /// SNORD29 /// SNORD31 / Fold change vs veh, SNHG1 /// SNORD22 /// SNORD25 /// SNORD26 /// SNORD27 /// SNORD28 /// SNORD29 /// SNORD31 / Fold change (Aza/veh), C12orf56 (ProbeSet 11735607_a_at) / Fold change (ACY-1035/veh), C12orf56 (ProbeSet 11735607_a_at) / Fold change (Aza/veh), FGFR1OP (ProbeSet 11751329_s_at) / Fold change (ACY-1035/veh), FGFR1OP (ProbeSet 11751329_s_at) / Fold change (Aza/veh), VPS36 (ProbeSet 11739960_a_at) / Fold change (ACY-1035/veh), VPS36 (ProbeSet 11739960_a_at) / RFU SYPL1 (11715823_x_at) / Fold change /veh SYPL1 (11715823_x_at) / RFU IGFBP7 (11715501_s_at) / Fold change /veh IGFBP7 (11715501_s_at) / RFU REEP3 (11722064_at) / Fold change /veh REEP3 (11722064_at) / RFU IGLL1 (11728026_x_at) / Fold change /veh IGLL1 (11728026_x_at): dose or concentration left out as unconfirmed
Settings: MV-4-11 cells, 48 hours

Nc1ccc(-c2cccs2)cc1NC(=O)c1ccc2c(c1)cc(C1CC1)n2CCN1CCOCC1 [ACY-1035]
RFU PLEKHG5 (11737974_s_at): 47.67 RFU
